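Interpolation was linear, between the two tested concentrations surrounding the appropriate level; five concentrations were tested over 48 hours in 96-well plates. GI50 is the concentration that inhibits growth by half. Definition used: TGI = concentration required for complete inhibition of growth.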
Legend:
Assay in all cases: NCI tumour cell line growth inhibition, 48 h
BT-549 breast = tested on: BT-549 breast
CAKI-1 renal = tested on: CAKI-1 renal
COLO 205 colon = tested on: COLO 205 colon
HOP-62 NSCLC = tested on: HOP-62 NSCLC
HT29 colon = tested on: HT29 colon
K-562 leukemia = tested on: K-562 leukemia
KM12 colon = tested on: KM12 colon
M14 melanoma = tested on: M14 melanoma
MDA-MB-231 breast = tested on: MDA-MB-231 breast
MDA-N = tested on: MDA-N
OVCAR-8 ovarian = tested on: OVCAR-8 ovarian
PC-3 prostate = tested on: PC-3 prostate
RXF 393 renal = tested on: RXF 393 renal
SF-268 CNS = tested on: SF-268 CNS
SK-MEL-2 melanoma = tested on: SK-MEL-2 melanoma
SN12C renal = tested on: SN12C renal
SR leukemia = tested on: SR leukemia
T-47D breast = tested on: T-47D breast
HS 578T breast = tested on: HS 578T breast

Compound	TGI (BT-549 breast) [µM]	TGI (CAKI-1 renal) [µM]	TGI (COLO 205 colon) [µM]	TGI (HOP-62 NSCLC) [µM]	TGI (HT29 colon) [µM]	TGI (K-562 leukemia) [µM]	TGI (KM12 colon) [µM]	TGI (M14 melanoma) [µM]	TGI (MDA-MB-231 breast) [µM]	TGI (MDA-N) [µM]	TGI (OVCAR-8 ovarian) [µM]	TGI (PC-3 prostate) [µM]	TGI (RXF 393 renal) [µM]	TGI (SF-268 CNS) [µM]	TGI (SK-MEL-2 melanoma) [µM]	TGI (SN12C renal) [µM]	TGI (SR leukemia) [µM]	TGI (T-47D breast) [µM]	TGI (HS 578T breast) [µM]	GI50 (SN12C renal) [µM]
CC(=O)Nc1ccc(N=C2C(c3ccccc3)=C(SC3=C(c4ccccc4)C(=Nc4ccc(NC(C)=O)cc4)c4ccccc43)c3ccccc32)cc1	73.1	> 100	> 100	> 100	> 100	> 100	89.5	> 100	> 100	> 100	> 100	> 100	82.8	> 100	> 100	> 100	> 100	48.4	–	–
CC1=NNC(=O)C1C1CC(c2c[nH]c3ccccc23)=NNC1=S (configuration not stated)	> 100	> 100	> 100	> 100	> 100	> 100	> 100	> 100	> 100	> 100	> 100	> 100	> 100	> 100	> 100	> 100	–	> 100	> 100	–
O=C(Nc1nc(C23CC4CC(CC(C4)C2)C3)cs1)c1c(O)c2ccccc2[nH]c1=O	> 100	> 100	> 100	> 100	> 100	> 100	> 100	–	> 100	> 100	> 100	> 100	> 100	> 100	–	> 100	> 100	–	> 100	–
O=S(=O)(O)CCCC1S(=O)(=O)OCCOS1(=O)=O	> 100	> 100	> 100	> 100	> 100	–	> 100	> 100	> 100	> 100	> 100	> 100	> 100	> 100	–	–	> 100	> 100	> 100	–
COC(=O)C(C)(C)OCc1ccc(C2NC(=O)N(c3cccc(Cl)c3)C(=O)N2c2cccc(Cl)c2)cc1 (configuration not stated)	> 100	> 100	> 100	> 100	> 100	> 100	> 100	> 100	> 100	> 100	> 100	> 100	> 100	> 100	> 100	> 100	96.6	–	44.4	–
C/C(=C\c1ccccc1)C(=O)NCc1ccc(C(=O)NCCC(C)C)cc1	> 100	> 100	> 100	48	> 100	> 100	> 100	> 100	> 100	> 100	> 100	> 100	63.4	> 100	> 100	> 100	–	> 100	–	–
N#CC1Cc2cc3c(cc21)OCO3 (configuration not stated)	> 100	> 100	> 100	> 100	> 100	> 100	> 100	> 100	> 100	> 100	> 100	> 100	–	–	> 100	> 100	> 100	> 100	> 100	–
N#CC(c1nc2ccccc2s1)c1ncnc(Cl)c1[N+](=O)[O-] (configuration not stated)	56.3	> 100	29.8	97.2	34.8	–	> 100	34.3	92.1	37.5	34.7	–	89	32.9	–	41.9	–	86.9	–	–
CCOC(=O)C1C(c2ccc(OC)cc2)c2c([nH]n(-c3ccccc3)c2=O)CC1(O)OCC (configuration not stated)	> 100	> 100	> 100	> 100	> 100	–	> 100	> 100	> 100	> 100	> 100	> 100	–	> 100	> 100	> 100	> 100	> 100	> 100	–
O=[N+]([O-])c1ccc(-c2nc3ccc([N+](=O)[O-])cc3[nH]2)cc1	85.7	> 100	28.2	97	> 100	–	> 100	> 100	–	> 100	> 100	70.7	> 100	> 100	59.6	> 100	> 100	61.7	> 100	–
O=C1Cc2c([nH]c3c(Cl)cccc23)-c2ccccc2N1	> 100	–	> 100	> 100	> 100	> 100	> 100	> 100	> 100	> 100	> 100	> 100	–	> 100	–	> 100	> 100	> 100	> 100	–
S=c1nc(Cc2ccc(Cl)cc2)[nH][nH]1	> 100	> 100	> 100	> 100	> 100	> 100	> 100	> 100	> 100	> 100	> 100	> 100	–	–	> 100	> 100	> 100	99.6	> 100	–
Cc1ccc(Cc2n[nH]c(=O)n2-c2ccccc2)cc1	> 100	> 100	–	–	> 100	> 100	> 100	–	> 100	> 100	> 100	> 100	> 100	> 100	> 100	> 100	> 100	61.8	–	–
COc1ccc(/C=C2\C(=O)N(C)C(=O)c3cc(OC)c(OC)cc32)cc1OC	55.6	> 100	47.9	90	34.2	> 100	–	> 100	> 100	75.2	–	> 100	51.6	–	> 100	> 100	55.5	> 100	–	–
CCCCCCNC(=O)c1cc(CCc2cc(O)ccc2O)ccc1O	4.35	13.6	41.6	25	64.7	8.87	39.6	18.4	5.8	9.54	17.6	6.49	4.39	9.9	7.4	5.77	> 29	–	26.4	2.18
Nc1ccc(-c2cssc2=S)cc1	> 100	> 100	> 100	> 100	> 100	> 100	> 100	> 100	> 100	> 100	> 100	> 100	> 100	> 100	77	94.6	–	–	> 100	–
O=C(N/N=C(/COc1ccc(Cl)cc1)N=Cc1cccnc1)c1ccncc1	> 100	> 100	> 100	> 100	> 100	> 100	> 100	> 100	> 100	65.8	> 100	> 100	> 100	> 100	> 100	> 100	–	> 100	94.9	–
O=C(C=P(c1ccccc1)(c1ccccc1)c1ccccc1)c1cccc(-c2cccc([N+](=O)[O-])c2)c1	> 100	6.26	2.91	> 100	4.17	> 100	> 100	> 100	7.04	6.95	> 100	20.9	> 100	> 100	–	> 100	–	> 100	> 100	–
COc1ccc(/C=C/c2sc3ccccc3[n+]2CCCCI)cc1OC	> 10	> 10	–	> 10	> 10	> 10	> 10	> 10	> 10	> 10	> 10	> 10	> 10	> 10	9.47	> 10	–	–	> 10	–
CC(C)C[C@H](NC(=O)[C@H](Cc1ccccc1)NC(=O)CCc1ccccc1)B(O)O	< 0.01	0.0554	< 0.01	< 0.01	< 0.01	> 100	0.0101	< 0.01	< 0.01	< 0.01	< 0.01	< 0.01	< 0.01	< 0.01	< 0.01	< 0.01	–	< 0.01	< 0.01	–
COC(=O)c1cc2c3c(cc(N(C)C)c2[nH]1)N(C(=O)c1cc2cc(OC)c(OC)c(OC)c2[nH]1)CC3CCl (configuration not stated)	0.193	< 0.0025	0.0131	0.00774	> 25	0.788	0.0118	0.00848	0.0132	< 0.0025	–	25	< 0.0025	0.127	0.0659	0.384	–	0.642	–	–
O=C(NCCCCN(CCCNC(=O)C(F)(F)F)Cc1ccc2ccccc2c1)C(F)(F)F	36.5	28.1	30.3	–	26.6	37	32.1	30.3	31.1	31.6	36.1	–	52.9	31.9	–	30.3	–	40.2	38.6	–
Cc1ccc(Cc2n[nH]c(=O)n2/N=C\CC/C=N\n2c(Cc3ccc(C)cc3)n[nH]c2=O)cc1	> 100	> 100	> 100	24.6	> 100	> 100	> 100	> 100	> 100	> 100	39.9	> 100	65.3	50.9	80.5	> 100	–	> 100	45.5	–
O=S(=O)(N/N=C1\CC2CCC1C2)c1ccccc1 (configuration not stated)	> 100	> 100	> 100	> 100	> 100	> 100	> 100	> 100	–	> 100	> 100	> 100	–	> 100	> 100	> 100	> 100	–	> 100	–
COc1cc(/C=N/n2c(Cc3ccc(Cl)cc3)n[nH]c2=O)cc(OC)c1OC	> 100	> 100	> 100	> 100	> 100	> 100	> 100	> 100	> 100	> 100	> 100	> 100	> 100	> 100	> 100	> 100	–	> 100	27.2	–
O=c1[nH]cnc2c1sc1nc3ccccc3n12	> 100	> 100	> 100	> 100	> 100	–	54.9	> 100	> 100	> 100	> 100	> 100	84.4	> 100	> 100	–	–	> 100	> 100	–
N#Cc1n[nH]n(C2CCCCC2)c1=O	> 100	> 100	> 100	> 100	> 100	–	> 100	> 100	> 100	> 100	> 100	> 100	> 100	> 100	> 100	> 100	–	> 100	> 100	–
